Reference: patent US7361785B2, “Compound protecting against ultraviolet rays” (Lead Chemical Co., Ltd., priority 2002, dated 2008)

How the values were obtained:
[1] = tested on: guinea pigs' skin; assay: Blocking effects against UV ray irradiated on guinea pigs' skin; format: in vivo, male Hartley guinea pigs; conditions: for UV ray blocking effect score: total score for 2.5% and 5% ointments, 6 irradiated sites each scored 0-4, complete blocking = 24, UV 3000 Lux for 90 s, read 24 hours after irradiation
Protocol: Each compound of the present invention and commercially available p-methoxy cinnamic acid-2-ethyl hexyl as a positive reference were mixed with an ointment base (Plastibase), and 2.5% (mass % of active ingredient) and 5% ointment were prepared for each. The belly area of male Hartley guinea pigs that were 6 to 10 weeks old was shaved, and then further close shaved using an electric shaver. The test animals were then anaesthetized by injecting pentobarbital sodium (30 mg/kg) in their abdominal cavity. Then, 100 mg of the base material, 2.5% ointment and the 5% ointment were respectively spread in 6 to 7 cm long/15 cm wide areas of the shaved belly area of the test animal starting from its head. 10 minutes after spreading, the skin was covered with a piece of felt in which 9 holes (3×3) with 1 cm diameter had been made. A UV ray (3000 Lux) was then irradiated for a 90 second period. 24 hours after the irradiation, the intensity of the red circular marks that had been produced were observed, and the blocking effect investigated. Note that, the evaluation of the UV ray blocking effect was carried out in accordance with the following evaluation criteria (score based on 5 level evaluation).
In advance, 99 types of related compound were prepared using the test method described above as 10% ointments including the compounds of the present invention (the compounds expressed by formula I) and the compounds that are the active ingredient of the UV ray protection agent of the present invention (the compounds expressed by formula I′). A screening test was performed, and 9 compounds that 100% blocked the UV rays selected. Then, lower concentration ointments were prepared for these 9 compounds and an investigation was carried out to test the UV ray protection effect thereof. Note that, as a reference compound, the results for p-methoxy cinnamic acid ethyl hexyl that is used as the active ingredient in commercially sold UV ray protection agents are also shown.

[2] = tested on: mice; assay: Acute toxicity resulting from single under skin injection in mice; format: in vivo, male ddY mice; conditions: single under skin injection 1 g/kg; for Case of death: groups of five mice; for Case of death / Observed items: observed 1 week; for body weight of the mice following injection: weighed on days 1, 3, 6, 7
Protocol: (§1) An investigation was carried out using 5 week old male ddY mice.
(§2) Each compound (250 mg) was placed in suspension using the same amount of Tween-80, and then diluted with physiologic saline (5 mL) to form a 5% suspension. Then, supersonic treatment was performed to create the specimen. 0.2 mL/10 g (1 g/kg) of the specimen was injected per body weight under the skin of the back portion of each mouse in groups of five mice. The behavior of the mice was then observed for 1 week after injection while the mice were fed. The body weight of the mice was measured on the 1st, 3rd, 6th and 7th days. After one week, an abdominal section was performed, and changes in the various internal organs and abnormality of the injected area checked for.

[3] = as above; format: in vivo, male ddY mice; conditions: male, ddY, mouse, in vivo, subcutaneous, 1 g/kg; single under skin injection, mice
Protocol: as §1, §2

Structure (SMILES) | UV ray blocking effect score [1] | body weight by the 7th day following injection [2] | Case of death [2] | Observed items [2] | body weight of the mice following injection [2] | LD50 at 1 week [3] | UV ray protection effect (in words) ([1]; 2.5% and 5% ointments, comparison within Table 1)
C/C=C/C(=O)Nc1ccccc1C(=O)O [CU-1008] | 20 |  |  |  |  |  | 
Cc1ccccc1OC(=O)c1ccc2ccccc2c1 [CU-2010, o-tolyl-2-naphthyl carboxylate] | 21 |  |  |  |  |  | 
COc1cccc(C(=O)Oc2ccccc2C)c1 [CU-2102] | 15 |  |  |  |  |  | 
Cc1ccc(OC(=O)c2ccc3ccccc3c2)cc1 [CU-5004, p-tolyl-2-naphthyl carboxylate] | 20 | recovered to its level at the time of the first injection | 0/5 | Weight reduction | decreased | ≥ 1000 mg/kg | 
COc1cccc(C(=O)Oc2ccc(C)cc2)c1 [CU-5008] | 13 | recovered to its level at the time of the first injection | 0/5 | Weight reduction | decreased | ≥ 1000 mg/kg | 
COc1ccc(C(=O)Oc2ccc(C)cc2)cc1 [CU-5009, p-tolyl anisate] | 19 | recovered to its level at the time of the first injection | 0/5 | Weight reduction | decreased | ≥ 1000 mg/kg | 
O=C(Oc1cccc2ccccc12)c1ccccc1F [CU-9005] | 24 |  |  |  |  |  | strongest UV ray protection effect
O=C(Oc1ccc2ccccc2c1)c1ccccc1F [CU-10005] | 7 |  | 0/5 | No abnormalities | increased following injection in the same manner as the body weight of the mice in a reference group | ≥ 1000 mg/kg | 
Cc1ccc([N+](=O)[O-])cc1OC(=O)C=Cc1ccccc1 [CU-11005] | 12 |  |  |  |  |  | 
CCCCC(CC)COC(=O)C=Cc1ccc(OC)cc1 (stereo not drawn) [p-Methoxy-cinnamic acid-2-ethyl hexyl, reference compound] | 18 |  |  |  |  |  | 
